Converted amounts (≈) assume the structure as drawn.
Key:
Huh-7 cells = experiment: Amelioration of palmitate-induced ER stress: ATF3, BiP and CHOP mRNA by real-time PCR; format: cell-based; settings: palmitate 0.5 mM + inhibitor 1 μM, 48 h; for Level of CHOP mRNA: control (CT) = 100.0, PAL alone 224.5; for Level of BiP mRNA: control (CT) = 100.0, PAL alone 242.9; for Level of ATF3 mRNA: control (CT) = 100.0, PAL alone 585.5
Experimental: Huh-7 cells were maintained in a humid atmosphere of 5% CO2 at 37° C. in high glucose (25 mM) Dulbecco's modified Eagle's medium supplemented with 10% heat-inactivated fetal bovine serum, 1% of penicillin/streptomycin (10.000 units/mL of penicillin and 10.000 μg/mL of streptomycin) and 1% of amphotericin B (250 μg/mL).
Huh-7 cells were serum-starved overnight prior treatment. […] For RNA extraction, cells were pre-treated with the inhibitors (final concentration 1 μM) for 1 hour before treatment with palmitate (final concentration 0.5 mM) and inhibitors (final concentration 1 μM). For each condition, at least 3 replicates were performed. Following 48 hours of incubation, RNA were extracted as described below.
Total RNA in hepatocytes was harvested by TRIsure (Bioline) according to the manufacturer's instructions. The extracted RNA was dissolved in RNase-free water and concentrations of total RNA were quantified using a NanoDrop 2000c spectrophotometer (Thermo Scientific). First-stranded cDNA was synthesized from 0.5 μg total RNA (Life Technologies). […] The PCR reaction contained 10 ng of reverse-transcribed RNA, 2× IQ™ SYBRGreen Supermix (BioRad, Barcelona, Spain) and 900 nmol/L concentration of each primer. Optical primer amplification efficiency for each primer set was assessed and a dissociation protocol was carried out to assure a single PCR product. PCR assays were performed on a MiniOpticon™ Real-Time PCR system (BioRad). Thermal cycling conditions were as follows: activation of Taq DNA polymerase at 95° C. for 10 min, followed by 40 cycles of amplification at 95° C. for 15 sec and 60° C. for 1 min. The relative levels of specific mRNA were estimated from the value of the threshold cycle (Ct) of the real-time PCR adjusted by that of a housekeeping gene (GAPDH) through the formula […] (ΔCt=Gene of interest Ct-GAPDH Ct). Cf.

CYP2C19 = CYP2C19 (Homo sapiens, UniProt P33261); experiment: Inhibition of human cytochrome P450 CYP2C19; format: in vitro ADME; settings: human cytochrome P450 enzyme
Sequence of CYP2C19 (P33261 whole entry): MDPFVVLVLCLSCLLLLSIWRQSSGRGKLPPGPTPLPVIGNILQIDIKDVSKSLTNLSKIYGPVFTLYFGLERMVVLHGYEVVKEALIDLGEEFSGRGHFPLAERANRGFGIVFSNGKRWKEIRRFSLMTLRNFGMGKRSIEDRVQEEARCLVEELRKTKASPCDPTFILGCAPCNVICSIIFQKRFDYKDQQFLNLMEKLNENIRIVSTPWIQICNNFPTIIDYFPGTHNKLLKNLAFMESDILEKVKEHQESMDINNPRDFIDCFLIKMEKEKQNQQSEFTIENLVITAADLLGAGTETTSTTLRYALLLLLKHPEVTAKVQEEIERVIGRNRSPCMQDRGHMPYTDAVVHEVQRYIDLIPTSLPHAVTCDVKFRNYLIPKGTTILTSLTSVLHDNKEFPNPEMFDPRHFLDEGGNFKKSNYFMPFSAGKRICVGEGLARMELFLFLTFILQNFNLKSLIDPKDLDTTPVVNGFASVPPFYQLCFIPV
Text: (§1) The epoxidation of arachidonic acid (AA) by selected cytochrome P450 epoxygenases generates epoxyeicosatrienoic acids (EETs). These EETs show anti-inflammatory, antihypertensive, analgesic, angiogenic, and antiatherosclerotic effects in rodents and humans. sEH converts EETs to their corresponding dihydroxyeicosatrienoic acids (DHETs), whereby the biological effects of EETs are diminished, eliminated, or altered. Among the P450 enzymes, it is known that CYP2C19 and CYP1A2 have the highest formation rate of EETs from AA (cf. A. A. El-Sherbeni et al. “Repurposing resveratrol and fluconazole to modulate human cytrochrome P450-mediated arachidonic acid metabolites”, Molecular Pharmaceutics 2016, vol. 13, pp. 1278-1288). For this reason, a highly desirable aspect of any new sEH inhibitor is selectivity in front of CYP2C19 and CYP1A2.

[1] = Determination of water solubility (nephelometry); format: physicochemical; settings: aqueous with cosolvent or surfactant or cyclodextrin, kinetic from dmso stock; 5% DMSO: 95% PBS buffer, 37° C., read after 2 and 4 h; read-out: S (solubility)
CYP1A2 = biological target: T1, CYP1A2 (Homo sapiens, UniProt P05177); experiment: Inhibition of human cytochrome P450 CYP1A2; format: in vitro ADME; settings: human cytochrome P450 enzyme
T1 sequence (P05177 1-516): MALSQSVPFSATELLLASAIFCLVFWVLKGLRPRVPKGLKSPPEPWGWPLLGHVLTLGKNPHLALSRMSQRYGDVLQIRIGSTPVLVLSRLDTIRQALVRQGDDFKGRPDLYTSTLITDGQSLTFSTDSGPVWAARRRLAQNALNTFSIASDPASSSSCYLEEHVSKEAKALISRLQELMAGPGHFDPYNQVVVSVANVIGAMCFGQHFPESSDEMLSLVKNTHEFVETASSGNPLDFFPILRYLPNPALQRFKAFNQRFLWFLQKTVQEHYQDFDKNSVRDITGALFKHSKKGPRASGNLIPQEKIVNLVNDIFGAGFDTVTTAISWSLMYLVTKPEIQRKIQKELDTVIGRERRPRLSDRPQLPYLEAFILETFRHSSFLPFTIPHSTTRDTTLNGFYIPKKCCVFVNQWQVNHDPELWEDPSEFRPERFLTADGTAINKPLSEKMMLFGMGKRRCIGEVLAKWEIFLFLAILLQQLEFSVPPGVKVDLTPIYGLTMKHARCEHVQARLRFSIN
Text: as §1

[2] = Determination of cytotoxicity in THLE-2 cells (ATP viability); format: cell-based; settings: human; THLE-2 cells, 72 h exposure, 0-100 μM; read-out: LC50 (μM), cytotoxicity
Experimental: Cytotoxic effects of assayed compounds were tested using the immortalized human liver cell line THLE-2 (ATCC CRL-2706). Cells were cultured in BEGM medium (Clonetics # CC-4175) containing all the supplements kit except additional EGF and G418. Medium was completed by adding 0.7 μg/mL phosphoethanolamine, 0.5 ng/mL epidermal growth factor, antibiotics (penicillin and streptomycin) and 10% fetal bovine serum (FBS).
Cells were plated in 96-well black microplates at 10,000 cells/well density and were incubated at 37° C. (5% CO2, 95% humidity) for 24 h to allow the cells to adhere and form a monolayer. Test compounds were solubilized in 100% DMSO at a concentration curve way and then diluted with cell culture medium containing 10% DMSO. The final concentrations of the test compounds (1% DMSO) ranged from 0-100 μM in a final volume of 200 μL. Microplates were maintained at 37° C. (5% CO2, 95% humidity) during 3 days. Following this 72 h exposure to test compounds, cell viability in each well was determined by measuring the concentration of cellular adenosine triphosphate (ATP) using the ATP1Step Kit as described by the manufacturer (Perkin-Elmer). In a typical procedure, 50 μL of cell reagent is added to all wells of each test plate followed by incubation for 10 min at room temperature on an orbital shaker. ATP concentration was determined by reading chemical luminescence using the Envision plate reader (PerkinElmer). The percentage of viable cells relative to the non-drug treated controls was determined for each well and LC50 values were calculated as concentrations projected to kill 50% of the cells following a 72 h exposure, an average of minimum two independent replicates.

sEH in AR42j cells = biological target: T2, sEH in AR42j cells (Rattus norvegicus, UniProt P80299); experiment: In vitro determination of sEH inhibition activity in AR42j cells (cell-based fluorescent assay); settings: AR-42J, read-out: % Inhn. ± SE (100 μM), sEH inhibition activity in cell culture
T2 sequence (P80299 1-554): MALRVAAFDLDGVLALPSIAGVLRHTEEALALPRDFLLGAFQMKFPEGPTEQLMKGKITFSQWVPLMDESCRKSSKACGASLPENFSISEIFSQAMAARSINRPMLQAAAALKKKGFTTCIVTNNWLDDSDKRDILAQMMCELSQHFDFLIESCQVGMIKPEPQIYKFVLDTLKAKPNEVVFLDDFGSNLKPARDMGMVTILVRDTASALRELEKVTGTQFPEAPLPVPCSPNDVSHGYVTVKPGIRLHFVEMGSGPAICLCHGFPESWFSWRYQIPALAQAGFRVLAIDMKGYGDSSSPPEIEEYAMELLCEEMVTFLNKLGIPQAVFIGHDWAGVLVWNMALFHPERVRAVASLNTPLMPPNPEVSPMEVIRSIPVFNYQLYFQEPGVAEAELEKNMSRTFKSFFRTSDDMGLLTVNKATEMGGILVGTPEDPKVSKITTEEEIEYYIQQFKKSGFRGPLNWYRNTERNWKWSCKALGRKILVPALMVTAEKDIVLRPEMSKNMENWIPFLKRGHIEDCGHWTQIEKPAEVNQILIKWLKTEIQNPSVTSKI
Experimental: Solutions Preparation: • Assay buffer 1×: add 10 mL of the CBA-Buffer (10×) to 90 mL of distilled water. • Lysis Buffer: add 50 μL of the CBA Digitonin Solution to 10 mL of Buffer Assay 1×. • Substrate Solution: dilute 10 μL of CBA sEH Substrate with 10 mL of Assay Buffer 1×. • Standards: preparation of 7 concentrations of CBA 6-methoxy-2-naphtalaldehyde from 0 until 2 M with Assay Buffer 1×. • sEH Positive Control: Prepare another stock A (1 μg/ml: 1 μL CBA sEH Positive Control+1 mL Assay Buffer 1×). From the already prepared stock A, prepare 250 μL of sEH (10 ng/mL): 2.5 μL sEH stock A+250 μL Assay Buffer 1×). • sEH Inhibitor AUDA: dilute 10 μL CBA sEH Inhibitor with 500 ml Assay Buffer 1×. • Inhibitors dissolved in DMSO at appropriated concentrations.
Seed cells in a 96-well plate at a density of (2×10^4)-(5×10^4) cells/well in 100 μL of culture medium with or without compounds to be tested. Incubation of the cells in a CO2 incubator at 37° C. for 48 hours. Aspirate the culture medium and add 200 μL of Assay Buffer 1× to each well. Centrifuge the plate at 800 rmp for 5 minutes. Aspirate the supernatant and add 100 μL of Lysis Buffer to each well. Incubate with gentle shaking on an orbital shaker for 30 minutes at room temperature. Centrifuge the plate at 3000 rpm for 20 minutes at 4° C. Transfer 90 μL of the supernatants to the 96-Well Solid Plate (black). Add 10 μL Assay Buffer 1× or 10 μL of the AUDA solution to appropriate wells. For positive control wells, add 100 μL of the 10 ng/mL sEH Positive Control to two wells. Add 200 μL of 6-methoxy-2-Naphthaldehyde Standards to corresponding wells of the black plate. Add 100 μL of the sEH Substrate Solution to each well, except the standards. Incubate the plate at 37° C. for 30 minutes. […] The intensity of fluorescence was used to analyze and calculate inhibition percentages, shown in the Table as average of minimum three independent replicates.

[3] = Parallel artificial membrane permeation assay for blood-brain barrier (PAMPA-BBB); format: in vitro ADME, porcine; settings: PBS:EtOH (70:30)
Experimental: The in vitro permeability (Pe) of the test compounds through lipid extract of porcine brain membrane was determined. Assayed compounds were tested using a mixture of PBS:EtOH (70:30). […] From this equation and taking into account the limits established by Di et al. for BBB permeation, the ranges of permeability were established, as follows.

Row | Compound | Level of CHOP mRNA (Huh-7 cells) | Level of BiP mRNA (Huh-7 cells) | Level of ATF3 mRNA (Huh-7 cells) | inhibition at 1 µM (CYP2C19) [%] | solubility [1] [µM] | inhibition at 1 µM (CYP1A2) [%] | CC50 at 72 h [2] [µM] | inhibition at 100 µM (sEH in AR42j cells) [%] | CNS prediction [3]
1 | O=C(Nc1ccc(F)c(F)c1F)NC1C2CC3CC(C2)CC1C3 (centres unmarked) [Std 2, 1-(Adamantan-2-yl)-3-(2,3,4-trifluorophenyl)urea, reference compound] | 141.8 ± 23.7^(###) | 135.1 ± 16.2^(###) | 225.6 ± 21.2^(###) |  |  |  |  |  | 
2 | O=C(Nc1cccc(S(F)(F)(F)(F)F)c1)NC12CC3CC(CC(C3)O1)C2 [Ix, 1-(2-oxaadamantan-1-yl)-3-(3-(pentafluoro-λ^6-sulfanyl)phenyl)urea] |  |  |  | ≤ 6 | > 100 | ≤ 6 |  |  | 
3 | O=C(Nc1ccc(Cl)c(C(F)(F)F)c1)NC12CC3CC(CC(C3)O1)C2 [Iv, 1-(2-oxaadamantan-1-yl)-3-(4-chloro-3-(trifluoromethyl)phenyl)urea] |  |  |  | ≤ 6 | 60 (≈ 22.5 µg/mL) | ≤ 6 | 45.8 ± 3.8 | 51.6 ± 6.6 | CNS+ (Compounds of high BBB permeation (CNS+): Pe (10^6 cm s^−1)>5.181)
4 | CC(C)S(=O)(=O)N1CCC(NC(=O)NC23CC4CC(CC(C4)O2)C3)CC1 [Io, 1-(2-oxaadamant-1-yl)-3-(1-(isopropylsulfonyl)piperidin-4-yl)urea] |  |  |  | ≤ 6 | > 100 | ≤ 6 | > 100 | 40.9 ± 1.99 | CNS− (compounds of low BBB permeation (CNS−): Pe (10^6 cm s^−1)<2.107)
5 | O=C(NC1CCN(C(=O)c2ccccc2F)CC1)NC12CC3CC(CC(C3)O1)C2 [Is, 1-(2-oxaadamant-1-yl)-3-(1-(2-fluorobenzoyl)piperidin-4-yl)urea] |  |  |  | ≤ 6 | > 100 | ≤ 6 | > 100 | 45.3 ± 3.5 | CNS− (compounds of low BBB permeation (CNS−): Pe (10^6 cm s^−1)<2.107)
6 | O=C(Nc1cc(Cl)cc(OC(F)(F)F)c1)NC12CC3CC(CC(C3)O1)C2 [Iu] |  |  |  | ≤ 6 | 45 (≈ 17.6 µg/mL) | ≤ 6 |  |  | 
7 | O=C(Nc1ccc(F)c(F)c1F)NC12CC3CC(CC(C3)O1)C2 [Ia, 1-(2-oxaadamantan-1-yl)-3-(2,3,4-trifluorophenyl)urea] | 129.9 ± 37.6^(###) | 129.0 ± 20.5^(###) | 191.4 ± 22.6^(###) | ≤ 6 | 77 (≈ 25.1 µg/mL) | ≤ 6 | > 100 | 35.8 ± 4.7 | CNS+ (Compounds of high BBB permeation (CNS+): Pe (10^6 cm s^−1)>5.181)
8 | O=C(Nc1ccc(F)c(F)c1F)NC12CC3CC(CC(C3)C1)C2 [Std 1, 1-(Adamantan-1-yl)-3-(2,3,4-trifluorophenyl)urea, reference compound] |  |  |  |  | 66 (≈ 21.4 µg/mL) |  |  | 56.6 ± 11 | 
